In patent US9133181B2, “Substituted 6-(4-hydroxy-phenyl)-1H-pyrazolo[3,4-b]pyridine derivatives as kinase inhibitors” (SANOFI, priority 2012, dated 2015):

Target: T1, human full-length recombinant PKC βII (Homo sapiens, UniProt P05771)
T1 construct: Active human full-length recombinant PKC βII; purchased Invitrogen GmbH, Darmstadt, Germany
Assay: Determination of PKC βII inhibition (Caliper mobility shift kinase assay)
Assay type: biochemical
Conditions: final compound concentration 1.14 μM (±0.15 μM); 60 min incubation at 32° C.
Protocol: Determination of PKC βII Inhibition
PKC βII inhibition was determined according to the following protocol:
Active human full-length recombinant PKC βII and the peptide substrate, Fluorescein-RFARKGSLRQKNV, were purchased from Invitrogen GmbH, Darmstadt, Germany. Adenosine-5′-triphosphate (ATP), bovine serum albumine (BSA), dimethylsulphoxide (DMSO), 4-(2-hydroxyethyl)piperazine-1-ethanesulfonic acid (Hepes), Triton X-100, 1,2-Dioleoyl-sn-glycerol (DAG), L-α-Phosphatidyl-L-serine (PS), calcium chloride (CaCl2), and Pluronic F-68 were purchased from Sigma-Aldrich, Munich, Germany. Magnesium chloride, 1 M sodium hydroxide solution, 1M hydrochloric acid solution and EDTA were obtained from Merck Biosciences, Darmstadt, Germany.
Test compounds were diluted to three times the test concentration in buffer 1 (30 mM Hepes-NaOH, pH 7.4, 0.01% Pluronic F-68 and 3% (v/v) DMSO). The […] enzyme was diluted to a concentration of 30 ng/ml in buffer 2 (30 mM Hepes-NaOH, pH 7.4, 15 mM MgCl2, 150 μM CaCl2, 150 μg/ml PS, 60 μg/ml DAG, and 0.045% (w/v) Triton X-100). The peptide substrate and ATP were diluted to concentrations of 3 μM and 120 μM, respectively, in buffer 2. Two μl of the compound solution were mixed with 2 μl of the diluted enzyme in a 384-well small volume microtiter plate (Greiner, Bio-One, Frickenhausen, Germany), and the kinase reaction was initiated by addition of 2 μl of the solution containing peptide substrate and ATP. After 60 min incubation at 32° C., the reaction was stopped by addition of 20 μl of a solution containing 130 mM Hepes-NaOH, pH 7.4, 0.0195% (v/v) Brij-35, 6.5 mM EDTA, 0.13% chip coating reagent 3 (Caliper Lifescience Inc, Hopkinton, Mass.) and 6.5% (v/v) DMSO. Phosphorylation of the substrate peptide was then detected on a Caliper 3000 instrument essentially as described by Pommereau et al (J. Biomol. Screening 2004, 9(5), 409-416). Separation conditions were as follows: Pressure −0.8 psi, upstream voltage −3000 V, downstream voltage −800 V. Positive controls (buffer 1 instead of compound) and negative controls (buffer 1 instead of compound and buffer 2 instead of kinase solution) were run in parallel on each plate. Fractional turnover (R) was determined as the height of the peak of the phosphorylated peptide product divided by the sum of the unphosphorylated substrate and phosphorylated product peak heights. Percent-inhibition values for the test compounds were determined using the formula % Inhibition=100*(1−(Rcompound−Rnegative control)/(Rpositive control−Rnegative control).
In the following table % inhibition values observed with example compounds at a final concentration of 1.14 μM (±0.15 μM) are listed: […]

T1 sequence (P05771 1-673 isoform P05771-2): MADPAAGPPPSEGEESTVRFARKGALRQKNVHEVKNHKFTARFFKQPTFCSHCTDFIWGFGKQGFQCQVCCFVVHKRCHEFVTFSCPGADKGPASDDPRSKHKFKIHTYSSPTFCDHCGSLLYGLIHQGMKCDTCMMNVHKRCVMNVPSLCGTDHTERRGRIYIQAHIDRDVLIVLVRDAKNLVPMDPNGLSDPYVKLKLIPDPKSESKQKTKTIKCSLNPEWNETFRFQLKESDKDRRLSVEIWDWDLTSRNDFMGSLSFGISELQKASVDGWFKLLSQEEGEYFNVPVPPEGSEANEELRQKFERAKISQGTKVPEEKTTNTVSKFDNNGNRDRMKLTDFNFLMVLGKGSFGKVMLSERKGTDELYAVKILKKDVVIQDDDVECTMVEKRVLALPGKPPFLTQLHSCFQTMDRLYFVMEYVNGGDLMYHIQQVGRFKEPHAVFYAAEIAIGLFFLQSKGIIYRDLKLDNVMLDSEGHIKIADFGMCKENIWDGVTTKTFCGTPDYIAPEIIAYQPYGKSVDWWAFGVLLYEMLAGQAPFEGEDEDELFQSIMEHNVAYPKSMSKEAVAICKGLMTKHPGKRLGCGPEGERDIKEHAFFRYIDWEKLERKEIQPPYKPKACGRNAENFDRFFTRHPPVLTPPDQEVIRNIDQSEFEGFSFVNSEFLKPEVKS

inhibition at 1.14 µM | Structure (SMILES)
99% | Cc1n[nH]c2nc(-c3ccc(O)cc3F)cc(CN3CC(C)(C)NCC3C)c12 (centres unmarked) [Example 38, 3-Fluoro-4-[3-methyl-4-(2,5,5-trimethyl-piperazin-1-ylmethyl)-1H-pyrazolo[3,4-b]pyridin-6-yl]-phenol]
100% | CCC1CNC(C)(C)CN1Cc1cc(-c2ccc(O)cc2F)nc2[nH]nc(C)c12 (centres unmarked) [Example 39, 4-[4-(2-Ethyl-5,5-dimethyl-piperazin-1-ylmethyl)-3-methyl-1H-pyrazolo[3,4-b]pyridin-6-yl]-3-fluoro-phenol]
97% | Cc1n[nH]c2nc(-c3ccc(O)cc3)cc(CN3CCNCC34CC4)c12 [Example 40, 4-[4-(4,7-Diaza-spiro[2.5]oct-4-ylmethyl)-3-methyl-1H-pyrazolo[3,4-b]pyridin-6-yl]-phenol]
93% | Cc1n[nH]c2nc(-c3ccc(O)cc3)cc(CN3CCNCC3c3ccccc3)c12 (centres unmarked) [Example 41, 4-[3-Methyl-4-(2-phenyl-piperazin-1-ylmethyl)-1H-pyrazolo[3,4-b]pyridin-6-yl]-phenol]
94% | Cc1n[nH]c2nc(-c3ccc(O)cc3)cc(CN3CCNCC3c3ccc(F)cc3)c12 (centres unmarked) [Example 42, 4-{4-[2-(4-Fluoro-phenyl)-piperazin-1-ylmethyl]-3-methyl-1H-pyrazolo[3,4-b]pyridin-6-yl}-phenol]
38% | Cc1n[nH]c2nc(-c3ccc(O)cc3)cc(CN3CCNCC3c3ccc(C(F)(F)F)cc3)c12 (centres unmarked) [Example 44, 4-{3-Methyl-4-[2-(4-trifluoromethyl-phenyl)-piperazin-1-ylmethyl]-1H-pyrazolo[3,4-b]pyridin-6-yl}-phenol]
54% | Cc1n[nH]c2nc(-c3ccc(O)cc3)cc(CN3CCNCC3c3ccc(C(C)C)cc3)c12 (centres unmarked) [Example 45, 4-{4-[2-(4-Isopropyl-phenyl)-piperazin-1-ylmethyl]-3-methyl-1H-pyrazolo[3,4-b]pyridin-6-yl}-phenol]
90% | CCC1(NCc2cc(-c3ccc(O)cc3)nc3[nH]nc(C)c23)CCCNC1 (centres unmarked) [Example 46, 4-{4-[(3-Ethyl-piperidin-3-ylamino)-methyl]-3-methyl-1H-pyrazolo[3,4-b]pyridin-6-yl} phenol]
101% | Cc1n[nH]c2nc(-c3ccc(O)cc3)cc(CN3CCNCC34CCCC4)c12 [Example 47, 4-[4-(6,9-Diaza-spiro[4.5]dec-6-ylmethyl)-3-methyl-1H-pyrazolo[3,4-b]pyridin-6-yl]-phenol]
99% | Cc1n[nH]c2nc(-c3ccc(O)cc3)cc(CN3CC(C)NCC3(C)C)c12 (centres unmarked) [Example 48, 4-[3-Methyl-4-(2,2,5-trimethyl-piperazin-1-ylmethyl)-1H-pyrazolo-[3,4-b]pyridin-6-yl]-phenol]
95% | Cc1n[nH]c2nc(-c3ccc(O)cc3)cc(CN3CC(C)(C)NCC3(C)C)c12 [Example 49, 4-[3-Methyl-4-(2,2,5,5-tetramethyl-piperazin-1-ylmethyl)-1H-pyrazolo[3,4-b]pyridin-6-yl]-phenol]
96% | CCC1(C)CNC(C)(C)CN1Cc1cc(-c2ccc(O)cc2)nc2[nH]nc(C)c12 (centres unmarked) [Example 50, 4-[4-(2-Ethyl-2,5,5-trimethyl-piperazin-1-ylmethyl)-3-methyl-1H-pyrazolo[3,4-b]pyridin-6-yl]-phenol]
98% | CCC1(CC)CNC(C)(C)CN1Cc1cc(-c2ccc(O)cc2)nc2[nH]nc(C)c12 [Example 51, 4-[4-(2,2-Diethyl-5,5-dimethyl-piperazin-1-ylmethyl)-3-methyl-1H-pyrazolo[3,4-b]pyridin-6-yl]-phenol]
91% | Cc1n[nH]c2nc(-c3ccc(O)cc3)cc(CN3CC(C)(C)NCC3C)c12 (centres unmarked) [Example 52, 4-[3-Methyl-4-(2,5,5-trimethyl-piperazin-1-ylmethyl)-1H-pyrazolo[3,4-b]pyridin-6-yl]-phenol]
99% | CCC1CNC(C)(C)CN1Cc1cc(-c2ccc(O)cc2)nc2[nH]nc(C)c12 (centres unmarked) [Example 53, 4-[4-(2-Ethyl-5,5-dimethyl-piperazin-1-ylmethyl)-3-methyl-1H-pyrazolo[3,4-b]pyridin-6-yl]-phenol]
98% | Cc1n[nH]c2nc(-c3ccc(O)cc3)cc(CN3C[C@@H](C)NC[C@@H]3C)c12 [Example 54, 4-[4-((2S,5R)-2,5-Dimethyl-piperazin-1-ylmethyl)-3-methyl-1H-pyrazolo[3,4-b]pyridin-6-yl]-phenol]
86% | Cc1n[nH]c2nc(-c3ccc(O)cc3F)cc(CN3CCNC(C)(C)C3)c12 [Example 55, 4-[4-(3,3-Dimethyl-piperazin-1-ylmethyl)-3-methyl-1H-pyrazolo[3,4-b]pyridin-6-yl]-3-fluoro-phenol]

Second part, the compound before the results:

Structure (SMILES) | inhibition at 1.14 µM
Cc1n[nH]c2nc(-c3ccc(O)cc3F)cc(CN3CCCNC(C)C3)c12 (centres unmarked) [Example 25, 3-Fluoro-4-[3-methyl-4-(3-methyl-[1,4]diazepan-1-ylmethyl)-1H-pyrazolo[3,4-b]pyridin-6-yl]-phenol] | 102%
Cc1n[nH]c2nc(-c3ccc(O)cc3F)cc(CN3CCNCC3(C)C)c12 [Example 26, 4-[4-(2,2-Dimethyl-piperazin-1-ylmethyl)-3-methyl-1H-pyrazolo[3,4-b]pyridin-6-yl]-3-fluoro-phenol] | 92%
Cc1n[nH]c2nc(-c3ccc(O)cc3F)cc(CN3C[C@@H](C)NC[C@@H]3C)c12 [Example 27, 4-[4-((2S,5R)-2,5-Dimethyl-piperazin-1-ylmethyl)-3-methyl-1H-pyrazolo[3,4-b]pyridin-6-yl]-3-fluoro-phenol] | 83%
Cc1n[nH]c2nc(-c3ccc(O)cc3F)cc(CN3CC(C)(C)NCC3(C)C)c12 [Example 28, 3-Fluoro-4-[3-methyl-4-(2,2,5,5-tetramethyl-piperazin-1-ylmethyl)-1H-pyrazolo[3,4-b]pyridin-6-yl]-phenol] | 97%
CC[C@@H]1CN(Cc2cc(-c3ccc(O)cc3F)nc3[nH]nc(C)c23)[C@@H](C)CN1 [Example 30, 4-[4-((2S,5R)-5-Ethyl-2-methyl-piperazin-1-ylmethyl)-3-methyl-1H-pyrazolo[3,4-b]pyridin-6-yl]-3-fluoro-phenol] | 97%
CCC1(C)CNC(C)(C)CN1Cc1cc(-c2ccc(O)cc2F)nc2[nH]nc(C)c12 (centres unmarked) [Example 31, 4-[4-(2-Ethyl-2,5,5-trimethyl-piperazin-1-ylmethyl)-3-methyl-1H-pyrazolo[3,4-b]pyridin-6-yl]-3-fluoro-phenol] | 101%
CCC1(CC)CNC(C)(C)CN1Cc1cc(-c2ccc(O)cc2F)nc2[nH]nc(C)c12 [Example 32, 4-[4-(2,2-Diethyl-5,5-dimethyl-piperazin-1-ylmethyl)-3-methyl-1H-pyrazolo[3,4-b]pyridin-6-yl]-3-fluoro-phenol] | 101%
Cc1n[nH]c2nc(-c3ccc(O)cc3)cc(CN3CC4(CCCC4)NCC3C)c12 (centres unmarked) [Example 33, 4-[3-Methyl-4-(8-methyl-6,9-diaza-spiro[4.5]dec-9-ylmethyl)-1H-pyrazolo[3,4-b]pyridin-6-yl]-phenol] | 93%
Cc1n[nH]c2nc(-c3ccc(O)cc3F)cc(CN3CC(C)(C)NCC3(C)C3CC3)c12 (centres unmarked) [Example 34, 4-[4-(2-Cyclopropyl-2,5,5-trimethyl-piperazin-1-ylmethyl)-3-methyl-1H-pyrazolo[3,4-b]pyridin-6-yl]-3-fluoro-phenol] | 73%
Cc1n[nH]c2nc(-c3ccc(O)cc3F)cc(CN3CC4(CCCC4)NCC3C)c12 (centres unmarked) [Example 35, 3-Fluoro-4-[3-methyl-4-(8-methyl-6,9-diaza-spiro[4.5]dec-9-ylmethyl)-1H-pyrazolo[3,4-b]pyridin-6-yl]-phenol] | 78%
Cc1n[nH]c2nc(-c3ccc(O)cc3F)cc(CN3CC4(CCCC4)NCC3(C)C)c12 [Example 36, 4-[4-(8,8-Dimethyl-6,9-diaza-spiro[4.5]dec-9-ylmethyl)-3-methyl-1H-pyrazolo[3,4-b]pyridin-6-yl]-3-fluoro-phenol] | 94%
Cc1n[nH]c2nc(-c3ccc(O)cc3F)cc(CN3CC(C)(C)NCC3C(C)C)c12 (centres unmarked) [Example 37, 3-Fluoro-4-[4-(2-isopropyl-5,5-dimethyl-piperazin-1-ylmethyl)-3-methyl-1H pyrazolo[3,4-b]pyridin-6-yl]-phenol] | 94%
